Measurements: patent publication US10463700B2, “Use of propolis for combating the side effects of chemotherapy” (POLLENERGIE, priority 2013, dated 2019)

Tested on: progenerating CD34+ stock cells obtained from human bone marrow
Assay: Cytolysis of CD34+ progenerating stock cells after chemotherapy treatment (SYTOX green)
Assay type: cell-based
Settings: propolis 0 μg/ml (Control)
Method: The objective of the test is to evaluate the effect of the propolis on the cytolysis of progenerating CD34+ stock cells obtained from human bone marrow following the application of chemotherapy treatment (epirubicin and taxotere).
The culture medium that is used is as follows: IMDM, 15 SVF, SCF (50 ng/ml), TPO (50 ng/ml), FK (50 ng/ml).
The test protocol is described below.
On D3: thawing and seeding with 50,000 cells/ml in a flask ([…])
On D0: marking and seeding with 6,000 cells/well in a 96-well plate
Between D0 and D4: • Treatment of cells with a propolis extract (Example 1) between D0 and D3 with the following doses: 0, 0.5, 1, 4, 10 and 20 μg/ml • Treatment of cells with chemotherapy agents (epirubicin at […] and taxotere […]) between D1 and D3
On D5: Marking with 5 nM of SYTOX green, and measurement of cytolysis.
The obtained results that are presented in the table below provide the percentage of CD34+ progenerating stock cells that is cytolyzed on D5.

| Compound | percentage of CD34+ progenerating stock cells that is cytolyzed on D5 (Epirubicin 4.74.10^6 M D1-D3 alone) | percentage of CD34+ progenerating stock cells that is cytolyzed on D5 (Taxotere 2.80.10^6 M D1-D3 alone) |
| --- | --- | --- |
| COc1cccc2c1C(=O)c1c(O)c3c(c(O)c1C2=O)C[C@@](O)(C(=O)CO)C[C@@H]3O[C@H]1C[C@H](N)[C@@H](O)[C@H](C)O1 [Epirubicin] | 53.93% | – |
| CC(=O)O[C@@]12CO[C@@H]1C[C@H](O)[C@@]1(C)C(=O)[C@H](O)C3=C(C)[C@@H](OC(=O)[C@H](O)[C@@H](NC(=O)OC(C)(C)C)c4ccccc4)C[C@@](O)([C@@H](OC(=O)c4ccccc4)[C@H]21)C3(C)C [Taxotere] | – | 65.47% |
